Measurements reported in patent publication US8017809B2, “Bisboron compound” (Japan Science and Technology Agency, priority 2005, dated 2011).
Read-outs that look alike come from different tables or passages of the source.

Tested on: capacitative calcium entry (CCE) in IP3 receptor-deficient strain of cell line DT40
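Note: intracellular Ca2+ read as 340/380 nm excitation ratio at 510 nm emission, stores emptied by thapsigargin without external Ca2+, then 2 mM CaCl2 added, inhibition of the ensuing Ca2+ rise.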

Method: (Assay of Capacitative Calcium Entry Inhibition)
Its 510 nm fluorescence obtained at 340 nm and 380 nm is measured and the fluorescence ratio F340/380 is measured to determine the intracellular calcium ion concentration. Next, thapsigargin (an endoplasmic reticulum calcium ion pump inhibitor) is allowed to act without calcium ion in an extracellular fluid to deplete an intracellular calcium store. Calcium chloride at a final concentration of 2 mM is added to the extracellular fluid. The IC50 value is calculated by estimating the effect of each compound on the degree of increase in the intracellular calcium concentration at the time of the addition.

Compound: NCCOB(c1ccccc1)c1ccc(COCc2cccc(B(OCCN)c3ccccc3)c2)cc1 [Example 13, (3-(Phenylaminoethoxyboryl)benzyl) (4-(phenylaminoethoxyboryl)benzyl) ether]
- inhibition (0.1 µM): 10%
- inhibition (0.2 µM): 80%
- inhibition (0.3 µM): 100%
